Earlier results as cited in patent US20040202732A1, “Composition to promote weight loss” (priority 2003, published 2004).

Columns and labels:
[1] = caffeine administration alone
[2] = test system: prostaglandin E2 production
[3] = 12 weeks, 3.4-g and higher CLA groups, sixty overweight or obese subjects
[4] = 12 weeks, fifty-three healthy men and women
[5] = mice fed CLA supplemented diets for 28 days
[6] = 4-week treatment
[7] = three daily doses for 2 weeks, exercise 90 minutes three times weekly

Cn1c(=O)c2c(ncn2C)n(C)c1=O [caffeine]
increased resting energy expenditure and fat oxidation [1]: did not occur

O=C(O[C@@H]1Cc2c(O)cc(O)cc2O[C@@H]1c1cc(O)c(O)c(O)c1)c1cc(O)c(O)c(O)c1 [EGCG, epigallocatechin galate]
inhibition of TNF-alpha (TNF-alpha): can inhibit | inhibition of prostaglandin E2 production [2]: can inhibit

Conjugated Linoleic Acid [CLA]
body fat mass (BFM) [3]: significant reduction | decrease of proportion of body fat [4]: 3.8% | body mass [5]: maintained body mass | increase of body protein [5]: up to 13% | reduction of body fat [5]: up to 60% | reduction from waistlines ([6]; average): an average of one-inch reduction | sagittal abdominal diameter (SAD) ([6]; twenty-five men with significant abdominal fat): significant reduction | inhibition of IL-1 (IL-1): can inhibit | body weight loss [7]: no effects | body fat ([7]; versus placebo): significantly reduced | inhibition of prostaglandin E2 production [2]: can inhibit
